From paper PMC4723341, “Ribonuclease H/DNA Polymerase HIV-1 Reverse Transcriptase Dual Inhibitor: Mechanistic Studies on the Allosteric Mode of Action of Isatin-Based Compound RMNC6” (PLoS ONE, 2016)

What was measured:
[1] = tested on: HIV-1 RT-associated RNase H activity, V106A RT; test: RNase H activity assay, V106A RT; assay type: biochemical, HIV-1 group M subtype B; conditions: V106A RT
Experimental: HIV RT-associated RNase H activity was measured as described in 100 μL reaction volume containing 50 mM Tris-HCl buffer pH 7.8, 6 mM MgCl2, 1 mM dithiothreitol (DTT), 80 mM KCl, 0.25 μM hybrid RNA/DNA 5'-GAUCUGAGCCUGGGAGCU-Fluorescin-3' (HPLC, dry, QC: Mass Check) (available from Metabion) 5'-Dabcyl-AGCTCCCAGGCTCAGATC-3'(HPLC, dry, QC: Mass Check), increasing concentrations of inhibitors, whose dilution were made in water, and different amount of enzymes according to a linear range of dose-response curve: 20 ng of WT RT; 60 ng K103N RT; 37.5 ng V106A RT; 75 ng V108A RT; 5 ng Y181C RT; 50 ng Y188A RT; 30 ng Y188L RT; 100 ng E224A RT; 37.5 ng P225A RT; 20 ng P226A RT; 18 ng F227A RT; 30 ng L228A RT; 30 ng W229A RT; 10 ng M230A RT; 30 ng G231A RT; 62.5 ng N474A RT; 1 μg Y501A RT; 100 ng A502F RT; 37.5 ng A508V RT; 38 ng HIV-1 group O RT. The reaction mixture was incubated for 1 h at 37°C, stopped by addition of EDTA and products were measured with a multilabel counter plate reader Victor 3 (Perkin Elmer model 1420–051) equipped with filters for 490/528 nm (excitation/emission wavelength)

[2] = UV spectra in the absence and presence of magnesium (chelating potential); assay type: physicochemical; conditions: in the presence of 6 mM MgCl2
Text: Since the mode of action of previously identified dual RT inhibitors was not determined, we decided to investigate the mechanism of RT inhibition by RMNC6 in comparison with available RNase H inhibitors and NNRTIs. […] RNase H inhibitors such as vynologous ureas (VUs) are known to destabilize the RT heterodimer by binding to an allosteric pocket in the RNase H domain at the interface between p66 and p51 subunits.

[3] = target: DNA polymerase activity of HIV-1 group O RT and wild-type and mutant HIV-1 group M subtype B RTs; test: RDDP assays, HIV-1 group O RT and wild-type and mutant HIV-1 group M subtype B RTs together; assay type: biochemical; conditions: wild-type and mutant (K103N, Y181C, Y188L) group M subtype B RTs, read-out: IC50 RDDP, range over all enzymes
[4] = tested on: HIV-1 RT-associated RDDP activity, L228A RT; test: biochemical; parameters: species or system HIV-1 group M subtype B; conditions: L228A RT
[5] = target: T1, HIV-1 RT-associated RDDP activity, L228A RT (Human immunodeficiency virus type 1 group M subtype B, UniProt P04585, L815A); test: biochemical; parameters: species or system HIV-1 group M subtype B
T1 construct: The 1:1 ration between the p66/p51 subunits was also verified; made in house; host or cells: E. coli M15

[6] = target: HIV-1 RT-associated RDDP activity, HIV-1 group O RT (Human immunodeficiency virus type 1 group O, UniProt Q79666); test: RDDP activity assay, HIV-1 group O RT; assay type: biochemical; conditions: read-out: IC50 RDDP
Text: Recombinant HIV-1 group O RT was expressed and purified as previously described. It was obtained as a heterodimer composed of subunits of 66 and 51 kDa, with a polyhistidine tag at the C-terminus of p66. For this purpose, the RT p66 subunit encoded within a p66RTB expression vector was co-expressed with the HIV-1 protease in E. coli XL-1 Blue, and the obtained heterodimers were then purified by ionic exchange followed by chromatography on Ni2+-nitriloacetic acid agarose. The enzyme was quantified by active site titration before biochemical studies.
RNA-dependent DNA polymerase (RDDP) activity was measured as described in 25 μL volume containing 60 mM Tris-HCl buffer pH 8.1, 8 mM MgCl2, 60 mM KCl, 13 mM DTT, 2.5 μM poly(A)-oligo(dT), 100 μM dTTP, increasing concentrations of inhibitors, whose dilution were made in water, and different amounts of enzymes according to a linear range of dose-response curve: 6 ng wt RT; 30 ng K103N RT; 12 ng V106ART; 19 ng V108A RT; 1.51.5 ng Y181C RT; 45 ng Y188A RT; 15 ng Y188L RT; 30 ng E224A RT; 15 ng P225A RT; 18 ng P226A RT; 23 ng F227A RT; 15 ng L228A RT; 30 ng W229A RT; 30 ng M230A RT; 15 ng G231A RT; 15 ng N474A RT; 15 ng Y501A RT; 15 ng A502F RT; 19 ng A508V RT; 38 ng HIV-1 group O RT. After enzyme addition, the reaction mixture was incubated for 30 min at 37°C and the stopped by addition of EDTA. […]

[7] = target: T2, HIV-1 RT-associated RDDP activity, F227A RT (Human immunodeficiency virus type 1 group M subtype B, UniProt P04585, F814A); test: biochemical; parameters: species or system HIV-1 group M subtype B
T2 construct: The 1:1 ration between the p66/p51 subunits was also verified; made in house; host or cells: E. coli M15

[8] = tested on: HIV-1 RT-associated RDDP activity, F227A RT; test: biochemical; parameters: species or system HIV-1 group M subtype B; conditions: F227A RT
[9] = target: T3, HIV-1 RT-associated RDDP activity, Y501A RT (Human immunodeficiency virus type 1 group M subtype B, UniProt P04585, Y1088A); test: biochemical; parameters: species or system HIV-1 group M subtype B
T3 construct: The 1:1 ration between the p66/p51 subunits was also verified; made in house; host or cells: E. coli M15

[10] = target: T4, HIV-1 RT-associated RDDP activity, V106A RT (Human immunodeficiency virus type 1 group M subtype B, UniProt P04585, V693A); test: biochemical; parameters: species or system HIV-1 group M subtype B
T4 construct: The 1:1 ration between the p66/p51 subunits was also verified; made in house; host or cells: E. coli M15

[11] = target: T5, HIV-1 RT-associated RDDP activity, P226A RT (Human immunodeficiency virus type 1 group M subtype B, UniProt P04585, P813A); test: biochemical; parameters: species or system HIV-1 group M subtype B
T5 construct: The 1:1 ration between the p66/p51 subunits was also verified; made in house; host or cells: E. coli M15

[12] = target: T6, HIV-1 RT-associated RDDP activity, E224A RT (Human immunodeficiency virus type 1 group M subtype B, UniProt P04585, E811A); test: biochemical; parameters: species or system HIV-1 group M subtype B
T6 construct: The 1:1 ration between the p66/p51 subunits was also verified; made in house; host or cells: E. coli M15

| SMILES | Fold of increase of RNase H IC50 with respect to wt RT [1] | Shift of maximum of absorbance (UV spectra) [2] | IC50 [3] [µM] | Fold of increase of RDDP IC50 with respect to wt RT [4] | IC50 [5] [µM] | IC50 [6] [µM] | IC50 [7] [µM] | Fold of increase of RDDP IC50 with respect to wt RT [8] | IC50 [9] [µM] | Fold of increase of RDDP IC50 with respect to wt RT ([9]; Y501A RT) | IC50 [10] [µM] | Fold of increase of RDDP IC50 with respect to wt RT ([10]; V106A RT) | IC50 [11] [µM] | Fold of increase of RDDP IC50 with respect to wt RT ([11]; P226A RT) | IC50 [12] [µM] | Fold of increase of RDDP IC50 with respect to wt RT ([12]; E224A RT) |
| --- | --- | --- | --- | --- | --- | --- | --- | --- | --- | --- | --- | --- | --- | --- | --- | --- |
| CC(C)c1ccc(O)c(=O)c(O)c1 [BTP, β-thujaplicinol, reference compound] | 0.8 | – | – | – | – | – | – | – | – | – | – | – | – | – | – | – |
| N#Cc1ccc(-c2csc(NN=C3C(=O)Nc4ccccc43)n2)cc1 [RMNC6, (Z)-4-(2-(2-(2-oxoindolin-3-ylidene)hydrazinyl)thiazol-4-yl)benzonitrile] | – | did not shift | 5.4 to 20.1 | 1.3 | 13.1 ± 1.9 | 20.1 ± 7.4 | 15.2 ± 0.9 | 1.5 | 6.6 ± 0.1 | 0.7 | 25.1 ± 2.3 | 2.5 | 18.9 ± 0.7 | 1.9 | 13.8 ± 4.2 | 1.4 |
